pIC50: −log10 of the molar value.
Target: PRC-1 (Pseudomonas wenzhouensis, UniProt Z9ZEF5EQX5)
Assay: nitrocefin hydrolysis inhibition, spectrophotometry
Type: biochemical
Conditions: 100 μM nitrocefin, 5 min preincubation, 37°C; covalent

PRC-1, sequence (Z9ZEF5EQX5 23-379 limits assumed): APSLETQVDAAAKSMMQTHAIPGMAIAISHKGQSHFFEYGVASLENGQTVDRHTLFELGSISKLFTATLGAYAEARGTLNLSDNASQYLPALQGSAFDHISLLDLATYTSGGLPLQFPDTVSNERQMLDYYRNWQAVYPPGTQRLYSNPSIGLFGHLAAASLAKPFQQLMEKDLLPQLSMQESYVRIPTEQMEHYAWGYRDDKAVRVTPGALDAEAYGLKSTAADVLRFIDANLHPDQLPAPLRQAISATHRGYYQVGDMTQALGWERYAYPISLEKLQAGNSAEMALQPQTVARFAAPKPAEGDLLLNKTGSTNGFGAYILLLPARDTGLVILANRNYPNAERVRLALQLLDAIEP

SMILES	pIC50
O=C(O)[C@H]1/C(=C/CO)O[C@@H]2CC(=O)N21 [clavulanic acid]	4.63
NC(=O)[C@@H]1CC[C@@H]2CN1C(=O)N2OS(=O)(=O)O [avibactam]	9.41
